Experiments:
[1] = target: p38a activated, mitogen-activated protein kinase-activated protein kinase 2 (MAPKAP-K2 or MK-2) enzyme (Homo sapiens (Human), UniProt P49137); assay: MK2 Omnia continuous-read kinase assay for compound potency; type: biochemical; details: [MK-2]=0.4 nM, [ATP]=1.0 mM, [ST3-Sox]=10 μM
Outline: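 Continuous Omnia fluorescence read (λex360/λem485) every 71 s after starting with 0.4 nM MK-2, with 1.0 mM ATP (appKM 8-10 μM) and 10 μM ST3-Sox substrate.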

MK2 [2] = target: T1, MK2 (Homo sapiens (Human), UniProt P49137); assay: MK2 cellular assay (Hsp27 phosphorylation in Thp-1 cells); type: cell-based; details: differentiated Thp-1 cells, compound 1 hour, 50 ng/ml LPS 15 minutes, phosphorylation of Hsp27; read-out: MK2EC50
T1 sequence (P49137 whole entry): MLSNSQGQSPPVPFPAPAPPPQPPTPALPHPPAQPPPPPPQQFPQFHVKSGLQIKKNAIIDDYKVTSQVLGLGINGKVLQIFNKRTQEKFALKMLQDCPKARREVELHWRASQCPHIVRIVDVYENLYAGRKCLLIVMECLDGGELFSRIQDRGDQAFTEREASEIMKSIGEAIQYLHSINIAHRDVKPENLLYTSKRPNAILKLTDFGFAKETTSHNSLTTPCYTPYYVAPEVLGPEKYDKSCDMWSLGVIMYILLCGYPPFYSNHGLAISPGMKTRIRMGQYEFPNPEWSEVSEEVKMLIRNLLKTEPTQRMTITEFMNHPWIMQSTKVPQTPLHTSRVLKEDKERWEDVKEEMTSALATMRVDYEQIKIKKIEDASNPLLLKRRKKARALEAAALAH
Method: Compounds were assayed in Thp-1 human acute monocytic leukemia cells to measure inhibition of MK2 activity. Thp-1 were grown in suspension in T225 flasks. Two days prior to assay, Thp-1 cells were spun down, counted and plated at 1×10^6 cells per well of a 12 well plate in complete media containing 10 ng/ml PMA (phorbol myristate acetate) to differentiate the cells. On day of assay, cells were washed with complete media, and compound was added to differentiated Thp-1 cells for 1 hour. Cells were washed again, and complete media containing 50 ng/ml LPS (lipopolysaccharide) was added. After 15 minutes, cells were washed once with PBS and lysed on ice with BioRad Bioplex lysis buffer. 20 μg total protein from lysates were loaded on gel and blots were probed for phosphorylation of the MK2 substrate Hsp27. Dose response inhibition of MK2 signaling in differentiated Thp-1 cells was used to determine the EC50 for compounds reported in Table A in the column entitled “MK2 EC50.”

MK2 [3] = target: T1, MK2; assay: MK2 modification assessment by whole protein mass spectrometry; type: binding; details: intact MK2, 60 min, 10-fold excess of compound to protein
Outline: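 MK2 treated with compound is analysed intact by MALDI-TOF after C4 cleanup in sinapinic acid matrix. Percent modification is the centroid mass shift against control MK2 divided by compound mass.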

p38a activated, mitogen-activated protein kinase-activated protein kinase 2 (MAPKAP-K2 or MK-2) enzyme, sequence (P49137 whole entry): as above

Question: What does the source list for `C=CC(=O)Nc1cc(NC(=O)c2ccc3sc4c(c3c2)NC[C@@H](C)NC4=O)ccc1F` [III-6, (R)—N-(3-acrylamido-4-fluorophenyl)-3-methyl-5-oxo-2,3,4,5-tetrahydro-1H-benzo[4,5]thieno[3,2-e][1,4]diazepine-9-carboxamide]?
Answer: IC50 [1]: < 0.1 µM; EC50 (MK2 [2]): < 0.1 µM; MK2 Mass Mod (MK2 [3]): E (mass modification of ≥70%)

Question: With `C=CC(=O)N1CCOc2ccc(-c3cc4c(ccc5c6c([nH]c54)CCC6=O)cn3)cc21` [II-e-8, 2-(4-acryloyl-3,4-dihydro-2H-benzo[b][1,4]oxazin-6-yl)-8,9-dihydrocyclopenta[4,5]pyrrolo[2,3-f]isoquinolin-7(10H)-one] as the compound, how does the IC50 [1] read?
Answer: < 0.1 µM

Question: What about the EC50 (MK2 [2]) of the same compound?
Answer: > 1 µM

Question: What about the “MK2 Mass Mod” value (MK2 [3]) of the same compound?
Answer: E (mass modification of ≥70%)

Question: For `C=CC(=O)Nc1cc(-c2ccc3c(ccc4sc5c(c43)NC[C@@H](C)NC5=O)n2)cnc1C` [III-1, (R)—N-(2-methyl-5-(10-methyl-8-oxo-9,10,11,12-tetrahydro-8H-[1,4]diazepino[5′,6′:4,5]thieno[3,2-f]quinolin-3-yl)pyridin-3-yl)acrylamide], which IC50 [1] is on record?
Answer: < 0.1 µM

Question: And the EC50 (MK2 [2])?
Answer: < 0.1 µM

Question: And the “MK2 Mass Mod” value (MK2 [3])?
Answer: E (mass modification of ≥70%)

Question: Which results are given for `C=CC(=O)Nc1cc(-c2cc(-c3cc4c([nH]3)C3(CCCNC3)CNC4=O)ccn2)ccc1OCCOC` (stereo not drawn) [Compound I-3]?
Answer: IC50 [1]: < 0.1 µM; EC50 (MK2 [2]): > 1 µM; MK2 Mass Mod (MK2 [3]): E (mass modification of ≥70%)

Question: How did the IC50 [1] turn out when `C=CC(=O)Nc1ccccc1NC(=O)c1ccc2sc3c(c2c1)NC[C@@H](C)NC3=O` [III-10, (R)—N-(2-acrylamidophenyl)-3-methyl-5-oxo-2,3,4,5-tetrahydro-1H-benzo[4,5]thieno[3,2-e][1,4]diazepine-9-carboxamide] was run?
Answer: 0.101 to 0.5 µM

Question: What about the EC50 (MK2 [2]) of the same compound?
Answer: > 1 µM

Question: And the “MK2 Mass Mod” value (MK2 [3])?
Answer: E (mass modification of ≥70%)

Question: With `C=CC(=O)N1CC(C)Oc2ccc(NC(=O)c3ccc4cc5n(c4c3)C3(CCC3)CNC5=O)cc21` (racemic) [Compound V-50, N-(4-acryloyl-2-methyl-3,4-dihydro-2H-benzo[b][1,4]oxazin-6-yl)-1′-oxo-2′,3′-dihydro-1′H-spiro[cyclobutane-1,4′-pyrazino[1,2-a]indole]-7′-carboxamide (racemic)] as the compound, how does the IC50 [1] read?
Answer: < 0.1 µM

Question: And the EC50 (MK2 [2])?
Answer: 0.101 to 0.5 µM

Question: What about the “MK2 Mass Mod” value (MK2 [3]) of the same compound?
Answer: E (mass modification of ≥70%)

Question: `C=CC(=O)N1CC(C)Oc2ccc(-c3cc4c(ccc5c6c([nH]c54)CCC6=O)cn3)cc21` (stereo not drawn) [II-e-17, 2-(4-acryloyl-2-methyl-3,4-dihydro-2H-benzo[b][1,4]oxazin-6-yl)-8,9-dihydrocyclopenta[4,5]pyrrolo[2,3-f]isoquinolin-7(10H)-one] was tested. Which IC50 [1] did it give?
Answer: < 0.1 µM

Question: What about the EC50 (MK2 [2]) of the same compound?
Answer: 0.501 to 0.999 µM

Question: And the “MK2 Mass Mod” value (MK2 [3])?
Answer: E (mass modification of ≥70%)

Question: How did the IC50 [1] turn out when `C=CC(=O)Nc1cc(-c2cc3c(cn2)CCc2c-3[nH]c3c2C(=O)NCC3)ccc1OCCCN` [II-10, N-(2-(3-aminopropoxy)-5-(7-ox-6,7,8,9,11-hexahydro-5H-pyrido[3′,4′:4,5]pyrrolo[2,3-f]isoquinolin-2-yl)phenyl)acrylamide] was run?
Answer: < 0.1 µM

Question: What about the EC50 (MK2 [2]) of the same compound?
Answer: 0.501 to 0.999 µM

Question: What about the “MK2 Mass Mod” value (MK2 [3]) of the same compound?
Answer: E (mass modification of ≥70%)

Question: With `C=CC(=O)N1C[C@H](C)Oc2ccc(NC(=O)c3ccc4sc5c(c4c3)NC[C@@H](C)NC5=O)cc21` [III-53, (R)—N—((S)-4-acryloyl-2-methyl-3,4-dihydro-2H-benzo[b][1,4]oxazin-6-yl)-3-methyl-5-oxo-2,3,4,5-tetrahydro-1H-benzo[4,5]thieno[3,2-e][1,4]diazepine-9-carboxamide] as the compound, how does the IC50 [1] read?
Answer: < 0.1 µM

Question: And the EC50 (MK2 [2])?
Answer: > 1 µM

Question: What about the “MK2 Mass Mod” value (MK2 [3]) of the same compound?
Answer: E (mass modification of ≥70%)

Question: Which results are given for `C=CC(=O)N1CCOc2ccc(-c3nccc(-c4cc5n(c4)CCNC5=O)n3)cc21` [V-c-3, 7-(2-(4-acryloyl-3,4-dihydro-2H-benzo[b][1,4]oxazin-6-yl)pyrimidin-4-yl)-3,4-dihydropyrrolo[1,2-a]pyrazin-1(2H)-one]?
Answer: IC50 [1]: < 0.1 µM; EC50 (MK2 [2]): > 1 µM; MK2 Mass Mod (MK2 [3]): E (mass modification of ≥70%)

Question: Which IC50 [1] does the source give for `C=CC(=O)Nc1cc(-c2cc3c(ccc4c5c(n(C)c43)CCC5=O)cn2)ccc1N1CCN(C)CC1` [II-e-15, N-(5-(10-methyl-7-oxo-7,8,9,10-tetrahydrocyclopenta[4,5]pyrrolo[2,3-f]isoquinolin-2-yl)-2-(4-methylpiperazin-1-yl)phenyl)acrylamide] here?
Answer: < 0.1 µM

Question: And the EC50 (MK2 [2])?
Answer: 0.101 to 0.5 µM

Question: What about the “MK2 Mass Mod” value (MK2 [3]) of the same compound?
Answer: E (mass modification of ≥70%)

Question: How did the IC50 [1] turn out when `C=CC(=O)NC1CCCC1NC(=O)c1ccc2cc3n(c2c1)C1(CCC1)CNC3=O` (racemic) [Compound V-56, N-trans-(2-acrylamidocyclopentyl)-1′-oxo-2′,3′-dihydro-1′H-spiro[cyclobutane-1,4′-pyrazino[1,2-a]indole]-7′-carboxamide (racemic)] was run?
Answer: > 1 µM

Question: And the EC50 (MK2 [2])?
Answer: > 1 µM

Question: And the “MK2 Mass Mod” value (MK2 [3])?
Answer: F (mass modification of 31-69%)

Question: `C=CC(=O)Nc1cc(NC(=O)c2ccc3sc4c(c3c2)NC[C@@H](C)NC4=O)ccc1N1CCCC1` [III-3, (R)—N-(3-acrylamido-4-(pyrrolidin-1-yl)phenyl)-3-methyl-5-oxo-2,3,4,5-tetrahydro-1H-benzo[4,5]thieno[3,2-e][1,4]diazepine-9-carboxamide] was tested. Which IC50 [1] did it give?
Answer: < 0.1 µM

Question: And the EC50 (MK2 [2])?
Answer: < 0.1 µM

Question: What about the “MK2 Mass Mod” value (MK2 [3]) of the same compound?
Answer: E (mass modification of ≥70%)

Question: What does the source list for `C=CC(=O)N1C[C@@H](C)Oc2ccc(NC(=O)c3ccc4sc5c(c4c3)NC[C@@H](C)NC5=O)cc21` [III-31, (R)—N—((R)-4-acryloyl-2-methyl-3,4-dihydro-2H-benzo[b][1,4]oxazin-6-yl)-3-methyl-5-oxo-2,3,4,5-tetrahydro-1H-benzo[4,5]thieno[3,2-e][1,4]diazepine-9-carboxamide]?
Answer: IC50 [1]: < 0.1 µM; EC50 (MK2 [2]): < 0.1 µM; MK2 Mass Mod (MK2 [3]): E (mass modification of ≥70%)

Question: With `C=CC(=O)Nc1cc(C2CCN(C)CC2)cc2oc(-c3ccc4cc5n(c4c3)C3(CCC3)CNC5=O)nc12` [Compound V-61, N-(6-(1-methylpiperidin-4-yl)-2-(1′-oxo-2′,3′-dihydro-1′H-spiro[cyclobutane-1,4′-pyrazino [1,2-a]indol]-7′-yl)benzo[d]oxazol-4-yl)acrylamide] as the compound, how does the IC50 [1] read?
Answer: < 0.1 µM

Question: What about the EC50 (MK2 [2]) of the same compound?
Answer: < 0.1 µM

Question: What about the “MK2 Mass Mod” value (MK2 [3]) of the same compound?
Answer: E (mass modification of ≥70%)

Question: Which results are given for `C=CC(=O)Nc1cc(-c2cc3c(cn2)CCc2c-3[nH]c3c2C(=O)NCC3)ccc1OC` [II-2, N-(2-methoxy-5-(7-oxo-6,7,8,9,10,11-hexahydro-5H-pyrido[3′,4′:4,5]pyrrolo[2,3-f]isoquinolin-2-yl)phenyl)acrylamide]?
Answer: IC50 [1]: < 0.1 µM; EC50 (MK2 [2]): < 0.1 µM; MK2 Mass Mod (MK2 [3]): E (mass modification of ≥70%)

Question: What does the source list for `C=CC(=O)N1CCOc2ccc(NC(=O)c3ccc4sc5c(c4c3)NC[C@@H](C)NC5=O)cc21` [III-11, (R)—N-(4-acryloyl-3,4-dihydro-2H-benzo[b][1,4]oxazin-6-yl)-3-methyl-5-oxo-2,3,4,5-tetrahydro-1H-benzo[4,5]thieno[3,2-e][1,4]diazepine-9-carboxamide]?
Answer: IC50 [1]: < 0.1 µM; EC50 (MK2 [2]): < 0.1 µM; MK2 Mass Mod (MK2 [3]): E (mass modification of ≥70%)

Question: What does the source list for `C=CC(=O)Nc1cc(NC(=O)c2ccc3sc4c(c3c2)NC[C@@H](C)NC4=O)ccc1OCCOC` [III-7, (R)—N-(3-acrylamido-4-(2-methoxyethoxy)phenyl)-3-methyl-5-oxo-2,3,4,5-tetrahydro-1H-benzo[4,5]thieno[3,2-e][1,4]diazepine-9-carboxamide]?
Answer: IC50 [1]: < 0.1 µM; EC50 (MK2 [2]): > 1 µM; MK2 Mass Mod (MK2 [3]): E (mass modification of ≥70%)

Question: `C=CC(=O)Nc1cccc(NC(=O)c2ccc3sc4c(c3c2)NC[C@@H](C)NC4=O)c1` [III-12, (R)—N-(3-acrylamidophenyl)-3-methyl-5-oxo-2,3,4,5-tetrahydro-1H-benzo[4,5]thieno[3,2-e][1,4]diazepine-9-carboxamide] was tested. Which IC50 [1] did it give?
Answer: < 0.1 µM

Question: What about the EC50 (MK2 [2]) of the same compound?
Answer: 0.501 to 0.999 µM

Question: What about the “MK2 Mass Mod” value (MK2 [3]) of the same compound?
Answer: F (mass modification of 31-69%)

Question: With `C=CC(=O)Nc1cc(-c2ccc3c(ccc4sc5c(c43)NC[C@@H](C)NC5=O)n2)ccc1Cl` [III-54, (R)—N-(2-chloro-5-(10-methyl-8-oxo-9,10,11,12-tetrahydro-8H-[1,4]diazepino[5′,6′:4,5]thieno[3,2-f]quinolin-3-yl)phenyl)acrylamide] as the compound, how does the IC50 [1] read?
Answer: < 0.1 µM

Question: What about the EC50 (MK2 [2]) of the same compound?
Answer: 0.101 to 0.5 µM

Question: What about the “MK2 Mass Mod” value (MK2 [3]) of the same compound?
Answer: E (mass modification of ≥70%)

Question: What does the source list for `C=CC(=O)N1CCCC(NC(=O)c2ccc3sc4c(c3c2)NC[C@@H](C)NC4=O)C1` (stereo partly drawn) [III-51, (3R)—N-(1-acryloylpiperidin-3-yl)-3-methyl-5-oxo-2,3,4,5-tetrahydro-1H-benzo[4,5]thieno[3,2-e][1,4]diazepine-9-carboxamide]?
Answer: IC50 [1]: < 0.1 µM; EC50 (MK2 [2]): < 0.1 µM; MK2 Mass Mod (MK2 [3]): E (mass modification of ≥70%)

Question: `C=CC(=O)Nc1cc(NC(=O)c2ccc3cc4n(c3c2)C2(CCC2)CNC4=O)ccc1F` [Compound V-54, N-(3-acrylamido-4-fluorophenyl)-1′-oxo-2′,3′-dihydro-1′H-spiro[cyclobutane-1,4′-pyrazino[1,2-a]indole]-7′-carboxamide] was tested. Which IC50 [1] did it give?
Answer: 0.101 to 0.5 µM

Question: What about the EC50 (MK2 [2]) of the same compound?
Answer: 0.101 to 0.5 µM

Question: And the “MK2 Mass Mod” value (MK2 [3])?
Answer: E (mass modification of ≥70%)
